Among the data in patent US9555039B2, “Piperidine derivatives and compositions for the inhibition of nicotinamide phosphoribosyltransferase (NAMPT)” (Forma TM, LLC., priority 2011, dated 2017) are IC50 values, retold here.

Assay [1] concerns the target T1, Recombinant His-tagged NAMPT (Homo sapiens, UniProt P43490).
T1 construct: His; host or cells: E. coli
In words: Biochemical inhibition assay: NAMPT enzymatic reaction, NMN quantified by mass spectrometry. The settings on record: 33 nM NAMPT, 1 μM NAM, 100 μM PRPP, 2.5 mM ATP, 30 minutes at room temperature; read-out: Biochem IC50. The method in brief:
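Reaction 30 min at room temperature with 1 μM NAM, 100 μM PRPP, 2.5 mM ATP (final), quenched with formic acid. NMN quantified by RapidFire electrospray MS, normalized to L-cystathionine; IC50 from percent inhibition versus DMSO.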

A further assay deals with A2780 cells. Put plainly: In-vitro cell proliferation assay (SRB, 72 hours). It is filed as cell-based. The settings on record: Homo sapiens, sulforhodamine B (SRB) assay. The method in brief:
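Viable cells measured by TCA fixation and SRB staining, absorbance 570 nm; % inhibition vs DMSO control after media-only background subtraction, interpolated between two bracketing concentrations.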
In general terms: The SRB assay estimates cell density from bound dye.

T1 sequence (P43490 whole entry): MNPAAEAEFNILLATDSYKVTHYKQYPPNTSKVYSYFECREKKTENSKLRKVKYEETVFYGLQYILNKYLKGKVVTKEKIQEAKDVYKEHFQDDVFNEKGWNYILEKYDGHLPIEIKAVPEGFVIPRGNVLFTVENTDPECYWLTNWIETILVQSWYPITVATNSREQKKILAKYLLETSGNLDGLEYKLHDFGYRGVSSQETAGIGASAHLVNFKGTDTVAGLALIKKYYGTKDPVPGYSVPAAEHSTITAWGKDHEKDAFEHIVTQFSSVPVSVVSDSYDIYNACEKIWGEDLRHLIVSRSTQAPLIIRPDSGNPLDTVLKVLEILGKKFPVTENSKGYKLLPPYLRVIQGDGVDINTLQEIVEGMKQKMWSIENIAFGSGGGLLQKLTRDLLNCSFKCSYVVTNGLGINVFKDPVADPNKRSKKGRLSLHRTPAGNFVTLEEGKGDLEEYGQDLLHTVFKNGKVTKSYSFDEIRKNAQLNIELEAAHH

For orientation: IC50 means the midpoint of a concentration-inhibition curve. Turning to `CC(C)c1ncoc1C(=O)N1CCC(CCCCNC(=O)c2ccc3nccn3c2)CC1` [N-[4-(1-{[4-(propan-2-yl)-1,3-oxazol-5-yl]carbonyl}piperidin-4-yl)butyl]imidazo[1,2-a]pyridine-6-carboxamide], the IC50 in assay [1] was found to be 27.5 nM; in the assay on A2780 cells it was 8.2 nM.
As for `COCc1ccc(C(=O)N2CCC(CCCCNC(=O)c3ccc4nccn4c3)CC2)nc1` [N-[4-(1-{[5-(methoxymethyl)pyridin-2-yl]carbonyl}piperidin-4-yl)butyl]imidazo[1,2-a]pyridine-6-carboxamide], the IC50 in assay [1] was found to be 57.4 nM; in the assay with A2780 cells, 67.1 nM.
For `O=C(NCCCCC1CCN(C(=O)c2ccc3cc[nH]c3c2)CC1)c1cc2ccncc2s1` [N-(4-{1-[(1H-indol-6-yl)carbonyl]piperidin-4-yl}butyl)thieno[2,3-c]pyridine-2-carboxamide], in that order: 36.1 nM and 70.3 nM.
Regarding `O=C(NCCCCC1CCN(C(=O)c2cccc(Cl)c2Cl)CC1)c1cc2ccncc2s1` [N-(4-{1-[(2,3-dichlorophenyl)carbonyl]piperidin-4-yl}butyl)thieno[2,3-c]pyridine-2-carboxamide], the IC50 stood at 20.1 nM in assay [1] and 6.7 nM in the assay on A2780 cells.
In the case of `COc1cc(Cl)ccc1C(=O)N1CCC(CCCCNC(=O)c2ccc3nccn3c2)CC1` [N-(4-{1-[(4-chloro-2-methoxyphenyl)carbonyl]piperidin-4-yl}butyl)imidazo[1,2-a]pyridine-6-carboxamide], the IC50 in assay [1] was 80.6 nM; with A2780 cells, 27 nM.
As to `O=C(NCCCCC1CCN(C(=O)c2ccc(Cl)cc2Cl)CC1)c1ccc2nccn2c1` [N-(4-{1-[(2,4-dichlorophenyl)carbonyl]piperidin-4-yl}butyl)imidazo[1,2-a]pyridine-6-carboxamide], the values for the IC50 (in assay [1]; in the assay with A2780 cells) were 35.7 nM and 14.4 nM, respectively.
For the compound `O=C(NCCCCC1CCN(S(=O)(=O)c2ccc(F)c(F)c2)CC1)c1cc2cnccc2[nH]1` [N-(4-{1-[(3,4-difluorobenzene)sulfonyl]piperidin-4-yl}butyl)-1H-pyrrolo[3,2-c]pyridine-2-carboxamide], the IC50 is 34.6 nM in assay [1] and 22.8 nM in the assay with A2780 cells.
As to `O=C(NCCCCC1CCN(C(=O)c2ccccn2)CC1)c1ccc2nccn2c1` [N-(4-{1-[(pyridin-2-yl)carbonyl]piperidin-4-yl}butyl)imidazo[1,2-a]pyridine-6-carboxamide], the IC50 came to 36.4 nM in assay [1] and 13.5 nM in the assay on A2780 cells.
On to `O=C(NCCc1ccc(-c2ccccc2)cc1)c1cc2cnccc2[nH]1` [N-[2-(4-phenylphenyl)ethyl]-1H-pyrrolo[3,2-c]pyridine-2-carboxamide], for which the IC50 in assay [1] stood at 126 nM; in the assay with A2780 cells, 3980 nM.
`O=C(NCCCCC1CCN(C(=O)c2cnccc2C(F)(F)F)CC1)c1ccc2nccn2c1` [N-[4-(1-{[4-(trifluoromethyl)pyridin-3-yl]carbonyl}piperidin-4-yl)butyl]imidazo[1,2-a]pyridine-6-carboxamide]: the IC50 in assay [1] stood at 15.6 nM; in the assay on A2780 cells, 3.8 nM.
For `COc1cccc(OC)c1C(=O)N1CCC(CCCCNC(=O)c2cc3cnccc3[nH]2)CC1` [N-(4-{1-[(2,6-dimethoxyphenyl)carbonyl]piperidin-4-yl}butyl)-1H-pyrrolo[3,2-c]pyridine-2-carboxamide], in that order: 21.5 nM and 1.4 nM.
Turning to `O=C(NCCCCC1CCN(C(=O)c2cc(Cl)cc(Cl)c2)CC1)c1ccc2nccn2c1` [N-(4-{1-[(3,5-dichlorophenyl)carbonyl]piperidin-4-yl}butyl)imidazo[1,2-a]pyridine-6-carboxamide], the results for the IC50 (in assay [1]; in the assay with A2780 cells) were 61.6 nM and 32.9 nM, respectively.
For the compound `O=C(NCCCCC1CCN(C(=O)c2ccccc2F)CC1)c1cc2ccncc2s1` [N-(4-{1-[(2-fluorophenyl)carbonyl]piperidin-4-yl}butyl)thieno[2,3-c]pyridine-2-carboxamide], the IC50 amounted to 8.8 nM in assay [1] and 0.6 nM in the assay on A2780 cells.
